Test system: LG0567-F671-PDC complex spheroids viability
Experiment: Anticancer human tumor LG0567-F671-PDC patient-derived lung adenocarcinoma cell line growth inhibition [RAS]
Conditions: for IC50: curve of first compound; for viability, T/C: stronger effect = lower value; active = viability on the fitted dose curve at most 10% of control; inactive = the rest
Method in brief: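 Agents were tested in combination matrices in half-log decrements from a top concentration at or near clinical Cmax (10 microM if undetermined). Targets were multi-cell spheroids of tumour lines plus HUVEC and MSC stromal cells.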

[1] = second compound 0.000949 µM, first compound 0.0316 µM
[2] = second compound 0.000949 µM, first compound 0.1 µM
[3] = second compound 0.000949 µM, first compound 0.316 µM
[4] = second compound 0.000949 µM, first compound 1 µM
[5] = second compound 0.000949 µM, first compound 3.16 µM
[6] = second compound 0.000949 µM, first compound 10 µM
[7] = second compound 0.003 µM, first compound 0.0316 µM
[8] = second compound 0.003 µM, first compound 0.1 µM
[9] = second compound 0.003 µM, first compound 0.316 µM
[10] = second compound 0.003 µM, first compound 1 µM
[11] = second compound 0.003 µM, first compound 3.16 µM
[12] = second compound 0.003 µM, first compound 10 µM
[13] = second compound 0.00949 µM, first compound 0.0316 µM
[14] = second compound 0.00949 µM, first compound 0.1 µM
[15] = second compound 0.00949 µM, first compound 0.316 µM
[16] = second compound 0.00949 µM, first compound 1 µM
[17] = second compound 0.00949 µM, first compound 3.16 µM
[18] = second compound 0.00949 µM, first compound 10 µM
[19] = second compound 0.03 µM, first compound 0.0316 µM
[20] = second compound 0.03 µM, first compound 0.1 µM
[21] = second compound 0.03 µM, first compound 0.316 µM
[22] = second compound 0.03 µM, first compound 1 µM
[23] = second compound 0.03 µM, first compound 3.16 µM
[24] = second compound 0.03 µM, first compound 10 µM
[25] = second compound 0.0949 µM, first compound 0.0316 µM
[26] = second compound 0.0949 µM, first compound 0.1 µM
[27] = second compound 0.0949 µM, first compound 0.316 µM
[28] = second compound 0.0949 µM, first compound 1 µM
[29] = second compound 0.0949 µM, first compound 3.16 µM
[30] = second compound 0.0949 µM, first compound 10 µM
[31] = second compound 0.3 µM, first compound 0.0316 µM
[32] = second compound 0.3 µM, first compound 0.1 µM
[33] = second compound 0.3 µM, first compound 0.316 µM
[34] = second compound 0.3 µM, first compound 1 µM
[35] = second compound 0.3 µM, first compound 3.16 µM
[36] = second compound 0.3 µM, first compound 10 µM
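Also: spheroids exposed to compound for seven days before readout.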
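For IC50 in this document: luminescence signal used as a proxy for viable cells.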

CCC(CC)c1cc(NC2CCC(N)C2)n2nccc2n1 (stereo not drawn) + CCn1c(-c2cc(N3CCN(C)CC3)cnc2C(C)OC)c2c3cc(ccc31)-c1csc(n1)CC(NC(=O)C1CC1C)C(=O)N1CCCC(N1)C(=O)OCC(C)(C)C2
< 31.6 nM: IC50 (second compound 0.000949 µM) | IC50 (second compound 0.003 µM) | IC50 (second compound 0.00949 µM) | IC50 (second compound 0.03 µM) | IC50 (second compound 0.0949 µM) | IC50 (second compound 0.3 µM)
inactive: viability, T/C [1] 23.1% | viability, T/C [2] 23.2% | viability, T/C [3] 25.9% | viability, T/C [4] 22.7% | viability, T/C [7] 10.8% | viability, T/C [8] 9.27%
active: viability, T/C [5] 0.34% | viability, T/C [6] 0.1% | viability, T/C [9] 10.1% | viability, T/C [10] 9.94% | viability, T/C [11] 0.21% | viability, T/C [12] 0.08% | viability, T/C [13] 6.93% | viability, T/C [14] 7.19% | viability, T/C [15] 6.29% | viability, T/C [16] 4.74% | viability, T/C [17] 0.26% | viability, T/C [18] 0.09% | viability, T/C [19] 4.43% | viability, T/C [20] 3.65% | viability, T/C [21] 3.4% | viability, T/C [22] 2.31% | viability, T/C [23] 0.18% | viability, T/C [24] 0.09% | viability, T/C [25] 2.75% | viability, T/C [26] 2.83% | viability, T/C [27] 2.71% | viability, T/C [28] 1.9% | viability, T/C [29] 0.21% | viability, T/C [30] 0.11% | viability, T/C [31] 2.39% | viability, T/C [32] 2.56% | viability, T/C [33] 2.39% | viability, T/C [34] 1.46% | viability, T/C [35] 0.22% | viability, T/C [36] 0.15%

C=CC(=O)N1CCN(c2nc(OCC3CCCN3C)nc3c(F)c(-c4nc(N)cc(C)c4C(F)(F)F)c(Cl)cc23)C(C)C1 (stereo not drawn) + C#Cc1c(F)ccc2cc(O)cc(-c3ncc4c(N5CC6CCC(C5)N6)nc(OCC56CCCN5CC(F)C6)nc4c3F)c12
inactive: viability, T/C (second compound 0.0316 µM, first compound 0.00316 µM) 17.4% | viability, T/C (second compound 0.0316 µM, first compound 0.01 µM) 12.2% | viability, T/C (second compound 0.0316 µM, first compound 0.0316 µM) 11.1% | viability, T/C (second compound 0.0316 µM, first compound 0.1 µM) 12.7% | viability, T/C (second compound 0.0316 µM, first compound 0.316 µM) 12.4% | viability, T/C (second compound 0.0316 µM, first compound 1 µM) 11.7% | viability, T/C (second compound 0.1 µM, first compound 0.00316 µM) 14% | viability, T/C (second compound 0.1 µM, first compound 0.01 µM) 12% | viability, T/C (second compound 0.1 µM, first compound 0.0316 µM) 9.61% | viability, T/C (second compound 0.1 µM, first compound 0.1 µM) 11.5% | viability, T/C (second compound 0.1 µM, first compound 0.316 µM) 11% | viability, T/C (second compound 0.1 µM, first compound 1 µM) 10.9% | viability, T/C (second compound 0.316 µM, first compound 0.00316 µM) 16.3% | viability, T/C (second compound 0.316 µM, first compound 0.01 µM) 15.7% | viability, T/C (second compound 0.316 µM, first compound 0.0316 µM) 11.2% | viability, T/C (second compound 0.316 µM, first compound 0.1 µM) 8.83% | viability, T/C (second compound 0.316 µM, first compound 0.316 µM) 13.8% | viability, T/C (second compound 0.316 µM, first compound 1 µM) 9.54% | viability, T/C (second compound 1 µM, first compound 0.00316 µM) 20% | viability, T/C (second compound 1 µM, first compound 0.01 µM) 12.6% | viability, T/C (second compound 1 µM, first compound 0.0316 µM) 10.3% | viability, T/C (second compound 3.16 µM, first compound 0.00316 µM) 14% | viability, T/C (second compound 3.16 µM, first compound 0.01 µM) 10.2% | viability, T/C (second compound 10 µM, first compound 0.00316 µM) 10.8%
< 3.16 nM: IC50 (second compound 0.0316 µM) | IC50 (second compound 0.1 µM) | IC50 (second compound 0.316 µM) | IC50 (second compound 1 µM) | IC50 (second compound 3.16 µM) | IC50 (second compound 10 µM)
active: viability, T/C (second compound 1 µM, first compound 0.1 µM) 8.88% | viability, T/C (second compound 1 µM, first compound 0.316 µM) 9.02% | viability, T/C (second compound 1 µM, first compound 1 µM) 8.65% | viability, T/C (second compound 3.16 µM, first compound 0.0316 µM) 8.81% | viability, T/C (second compound 3.16 µM, first compound 0.1 µM) 7.62% | viability, T/C (second compound 3.16 µM, first compound 0.316 µM) 9.35% | viability, T/C (second compound 3.16 µM, first compound 1 µM) 8.07% | viability, T/C (second compound 10 µM, first compound 0.01 µM) 8.76% | viability, T/C (second compound 10 µM, first compound 0.0316 µM) 8.93% | viability, T/C (second compound 10 µM, first compound 0.1 µM) 9.51% | viability, T/C (second compound 10 µM, first compound 0.316 µM) 9.18% | viability, T/C (second compound 10 µM, first compound 1 µM) 8.52%

Cc1nc(N2CCC3(CC2)COC(C)C3N)c(CO)nc1Sc1ccnc(N)c1Cl (stereo not drawn) + CCn1c(-c2cc(N3CCN(C)CC3)cnc2C(C)OC)c2c3cc(ccc31)-c1csc(n1)CC(NC(=O)C1CC1C)C(=O)N1CCCC(N1)C(=O)OCC(C)(C)C2
active: viability, T/C [2] 9.61% | viability, T/C [3] 5.09% | viability, T/C [4] 3.4% | viability, T/C [5] 2.1% | viability, T/C [6] 1.79% | viability, T/C [7] 6.69% | viability, T/C [8] 5.75% | viability, T/C [9] 2.58% | viability, T/C [10] 2.04% | viability, T/C [11] 1.52% | viability, T/C [12] 1.27% | viability, T/C [13] 3.68% | viability, T/C [14] 3.22% | viability, T/C [15] 1.87% | viability, T/C [16] 1.37% | viability, T/C [17] 1.14% | viability, T/C [18] 1.07% | viability, T/C [19] 2.35% | viability, T/C [20] 1.85% | viability, T/C [21] 1.58% | viability, T/C [22] 1.41% | viability, T/C [23] 1.06% | viability, T/C [24] 0.91% | viability, T/C [25] 2.09% | viability, T/C [26] 1.47% | viability, T/C [27] 1.37% | viability, T/C [28] 0.88% | viability, T/C [29] 0.94% | viability, T/C [30] 0.69% | viability, T/C [31] 1.86% | viability, T/C [32] 1.2% | viability, T/C [33] 0.98% | viability, T/C [34] 0.98% | viability, T/C [35] 0.68% | viability, T/C [36] 0.66%
< 31.6 nM: IC50 (second compound 0.000949 µM) | IC50 (second compound 0.003 µM) | IC50 (second compound 0.00949 µM) | IC50 (second compound 0.03 µM) | IC50 (second compound 0.0949 µM) | IC50 (second compound 0.3 µM)
inactive: viability, T/C [1] 13.4%

CC1(O)CCCC1n1c(=O)c(C(F)F)cc2cnc(NC3CCN(S(C)(=O)=O)CC3)nc21 (stereo not drawn) + CCn1c(-c2cccnc2C(C)OC)c2c3cc(ccc31)N1CCOC(CC(NC(=O)C(C(C)C)N(C)C(=O)C3(F)CCN(C(=O)C#CC(C)(C)N(C)C)CC3)C(=O)N3CCCC(N3)C(=O)OCC(C)(C)C2)C1
inactive: viability, T/C [1] 17.6% | viability, T/C [2] 18.2% | viability, T/C [3] 18.2% | viability, T/C [4] 21.6% | viability, T/C [5] 22.6% | viability, T/C [6] 18% | viability, T/C [7] 17.6% | viability, T/C [8] 16.9% | viability, T/C [9] 18.5% | viability, T/C [10] 21.3% | viability, T/C [11] 24.5% | viability, T/C [12] 16.8% | viability, T/C [13] 15.8% | viability, T/C [14] 16.7% | viability, T/C [15] 20.2% | viability, T/C [16] 20.4% | viability, T/C [17] 20.7% | viability, T/C [18] 16.2% | viability, T/C [19] 14.5% | viability, T/C [20] 15.2% | viability, T/C [21] 19.5% | viability, T/C [22] 19.1% | viability, T/C [23] 20.2% | viability, T/C [24] 16.3% | viability, T/C [25] 13.5% | viability, T/C [26] 15.5% | viability, T/C [27] 16.1% | viability, T/C [28] 17.1% | viability, T/C [29] 18.6% | viability, T/C [30] 15.6% | viability, T/C [31] 11.8% | viability, T/C [32] 12.4% | viability, T/C [33] 14.1% | viability, T/C [34] 16.2% | viability, T/C [35] 17.4% | viability, T/C [36] 11.8%
< 31.6 nM: IC50 (second compound 0.000949 µM) | IC50 (second compound 0.003 µM) | IC50 (second compound 0.00949 µM) | IC50 (second compound 0.03 µM) | IC50 (second compound 0.0949 µM) | IC50 (second compound 0.3 µM)
